Values quoted from earlier work as cited in patent publication US5972639A, “Fluorescence-based assays for measuring cell proliferation” (Irori, priority 1997, dated 1999).

How the values were obtained:
Conditions in all cases: cited from earlier work
Alkaline phosphatase = tested on: Alkaline phosphatase
Acid phosphatase = tested on: Acid phosphatase
[1] = target: Alkaline phosphatase (E. coli) (Escherichia coli, UniProt P00634)
Alkaline phosphatase (E. coli), sequence (P00634 22-471): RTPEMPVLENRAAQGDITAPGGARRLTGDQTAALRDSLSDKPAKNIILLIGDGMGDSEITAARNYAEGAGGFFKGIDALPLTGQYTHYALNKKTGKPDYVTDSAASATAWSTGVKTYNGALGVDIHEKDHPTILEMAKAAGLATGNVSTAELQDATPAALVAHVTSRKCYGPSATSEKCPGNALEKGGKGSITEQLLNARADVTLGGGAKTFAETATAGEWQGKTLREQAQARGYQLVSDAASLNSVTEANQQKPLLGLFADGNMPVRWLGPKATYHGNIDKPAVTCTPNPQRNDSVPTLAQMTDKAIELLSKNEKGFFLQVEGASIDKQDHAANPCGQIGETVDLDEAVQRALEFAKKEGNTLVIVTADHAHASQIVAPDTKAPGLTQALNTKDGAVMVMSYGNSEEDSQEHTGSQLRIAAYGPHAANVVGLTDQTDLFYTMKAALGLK

Structure (SMILES): COC(=O)CCSP(=O)(O)O [S-[2-(Methoxy-carboxyl)ehtyl] phosphorothioate]
- Alkaline phosphatase, products identified (Alkaline phosphatase): d, ^32 Pi
- Acid phosphatase, products identified (Acid phosphatase): No cleavage

Structure (SMILES): O=[N+]([O-])c1ccc(OP(=O)(O)O)cc1 [p-NPP, p-nitrophenyl phosphate]
- Km [1]: 94 µM

Structure (SMILES): CC(=O)NCCSP(=O)(O)O [N-Acetylcysteamine S-phosphate]
- Alkaline phosphatase, products identified (Alkaline phosphatase): N-Acetylcysteamine
- Acid phosphatase, products identified (Acid phosphatase): No cleavage
